Laboratory results as given in patent US10683267B1, “Antidiabetic compounds” (King Abdulaziz University, priority 2019, dated 2020).
“Also recorded” adds a separate entry of the source. Where two headings read alike, the source gives them in different places. Marks after values point to notes of the source that are not given here.

What was measured:
[1] = system: diabetic mice; assay: Oral glucose tolerance test (OGTT) after single dose in diabetic mice; format: in vivo; conditions: for R.P. to Vildagliptin (Single Dose): Table 6, relative potency, B.G. = blood glucose; for AUC of blood glucose in OGTT (X, mean): glucose load 2 g/kg 2 h later, AUC 0-120 min
Protocol: (§1) The Biochemical and Research Ethical Committee of King Abulaziz University (Jeddah, Saudi Arabia), in accordance with the NIH guidelines, approved all procedures, and the animals received human care during the experimental period. Experiments were carried out using adult male Swiss albino mice (SWR), of 8-9 weeks age and 30-35 g weight. Animals were purchased from the animal house of the King Fahed Medical Research center (KFMRC), Jeddah, Saudi Arabia. Mice were kept at a constant temperature of 24-25° C. and were subjected to a controlled 12 h light-dark cycle; they had free access to water and pelleted diet ad libitum.
(§2) Nicotinamide (210 mg/kg b.w.), dissolved in saline, was injected intraperitoneally 15 min before the intraperitoneal injection of Streptozotocin (STZ) (Sigma, 180 mg/kg b.w.), which was freshly prepared in citrate buffer (pH 4.5). Control animals received both vehicles. During the experimental period, animals' food intake and body weight gain were monitored once a week.
Oral glucose tolerance tests were performed in 14 h overnight fasted diabetic mice that were pretreated with a single oral dose of the tested compounds. […] The drugs were suspended in carboxymethyl cellulose (CMC)-Na (1% in distilled water) and the dosing volume was adjusted at 10 mL/kg body weight of the mouse. Then an oral glucose load was administered (2 g/kg) 2 h after drug treatment. Blood glucose levels were determined using the Accu-check Go® (Roche Diagnostics, Michigan, USA). Samples were collected just before drug administration (fasting blood glucose), then at 2 h after drug treatment (immediately before glucose loading). Then blood sample collection was continued at 20, 40, 60 and 120 min intervals after glucose loading.
Animals were distributed between three categories of groups. Each group is composed of six animals (n=6) […] as follows:
Category 1: One group of animals were 14 h overnight-fasted normoglycemic mice and vehicle-treated (1% CMC-Na) at a dose of 10 ml/kg.
Category 2: Another group of animals was overnight fasted diabetic mice received the vehicle (1% CMC-Na) at a dosing volume of 10 ml/kg and served as a negative control.
Category 4: Animals of these groups were overnight fasted diabetic mice received the tested compounds at a dose of 50 mg/kg in 1% CMC (volume of 10 ml/kg).

[2] = biological target: T1, DPP-IV enzyme (Homo sapiens, UniProt P27487); assay: In vitro DPP-IV inhibition assay (Biovision kit, fluorescence); format: biochemical; conditions: for % Inhibition @ 100 nM / inhibition at 0.1 µM: compound at 100 nM; for DPP-4 enzyme inhibition activity, in words: SAR discussion; for % Inhibition (values marked *: inhibition at 1000 nM): compound at 1000 nM
T1 construct: purchased Biovision (Milpitas, Calif., USA)
T1 sequence (P27487 whole entry, species assumed): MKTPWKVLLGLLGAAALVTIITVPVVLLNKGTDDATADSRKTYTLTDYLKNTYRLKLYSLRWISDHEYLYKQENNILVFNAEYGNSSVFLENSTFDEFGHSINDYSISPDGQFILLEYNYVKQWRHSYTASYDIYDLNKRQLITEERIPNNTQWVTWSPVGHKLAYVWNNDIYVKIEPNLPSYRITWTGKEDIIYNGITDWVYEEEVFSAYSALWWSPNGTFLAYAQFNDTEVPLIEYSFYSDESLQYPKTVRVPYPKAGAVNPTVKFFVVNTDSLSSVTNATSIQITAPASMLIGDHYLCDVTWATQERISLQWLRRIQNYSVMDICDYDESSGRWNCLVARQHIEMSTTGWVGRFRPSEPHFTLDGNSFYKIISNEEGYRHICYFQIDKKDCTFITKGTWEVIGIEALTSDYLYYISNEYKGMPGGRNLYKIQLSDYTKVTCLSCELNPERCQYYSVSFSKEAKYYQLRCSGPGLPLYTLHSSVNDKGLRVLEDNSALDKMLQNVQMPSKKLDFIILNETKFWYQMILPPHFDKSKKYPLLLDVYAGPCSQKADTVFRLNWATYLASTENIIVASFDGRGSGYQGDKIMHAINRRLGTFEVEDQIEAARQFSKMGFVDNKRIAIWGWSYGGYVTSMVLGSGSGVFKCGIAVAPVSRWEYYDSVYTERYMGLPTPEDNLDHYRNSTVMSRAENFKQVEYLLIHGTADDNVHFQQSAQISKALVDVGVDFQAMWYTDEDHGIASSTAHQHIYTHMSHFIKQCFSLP
Protocol: DPP-IV inhibition assay was conducted using a kit purchased from Biovision (Milpitas, Calif., USA). Briefly, DPP-IV enzyme was diluted with Tris buffer and pipetted 50 μl into glass mini-cells. […] Finally a volume of 25 μl of DPP-IV substrate was added into each tube. The fluorescence generated from hydrolysis of the substrate was read at Ex/Em=360/460 nm using Modulus® single tube multimode reader (Promega, USA). Baseline fluorescence was recorded before incubation (R1) and 20 min after incubation (R2).
The standard DPP-IV inhibitor drug sitagliptin employed as positive control. […] Sigmoidal concentration-response curves for DPP-IV % inhibition versus log concentration were plotted using Graphpad prism software, version 5.00 (GraphPad Software, Inc. La Jolla, Calif., USA).

[3] = system: diabetic mice; assay: Oral glucose tolerance test (OGTT) after multiple doses (6 days) in diabetic mice; format: in vivo; conditions: for R.P. to Vildagliptin (6 Days): Table 6, relative potency, B.G. = blood glucose; for AUC % change from diabetic control / AUC Δ from diabetic control / Relative potency to vildagliptin / AUC of blood glucose in OGTT (X, mean): 50 mg/kg oral for 6 days; for Relative potency to vildagliptin: OGTT AUC; for AUC of blood glucose in OGTT (X, mean): glucose load 2 g/kg 2 h after 6th dose, AUC 0-120 min
Protocol: as §1, §2
(§3) On the same groups that received the single dose treatment, the tested compounds were given daily by oral gavage for six consecutive days. On day 6, the overnight fasted diabetic mice were pretreated with the 6th oral dose of the tested compounds. Two hours later, an oral glucose was loaded (2 g/kg/10 ml b.w.). Blood glucose levels were determined using the Accu-check Go®. Samples were collected just before drug administration (Fasting Blood glucose), then 2 h after drug treatment and before glucose administration. Samples collection was continued at 20, 40, 60 and 120 min intervals after glucose loading.

[4] = system: diabetic mice; assay: Fasting blood glucose of diabetic mice treated daily for 6 consecutive days; format: in vivo; conditions: 50 mg/kg oral daily
Protocol: as §1, §2, §3
The oral glucose tolerance test (OGTT) was performed over six days on diabetic mice. The glucose level was monitored daily (Table 3). The results were analyzed for activities after a single dose (Table 4) and after the 6th dose of the drug (Table 5).

[5] = Table 2, head prints no unit, nM per Table 6, read-out: IC50
[6] = read-out: enzymatic inhibition value / inhibitory activity (IC50)

| SMILES | IC50 [2, 5] [nM] | IC50 ([2]; Table 6, read-out: IC50) [nM] | % Inhibition @ 100 nM [2] [%] | DPP-4 enzyme inhibition activity, in words [2] | % Inhibition (values marked *: inhibition at 1000 nM) [2] | R.P. to Vildagliptin (Single Dose) [1] | R.P. to Vildagliptin (6 Days) [3] | other results |
| --- | --- | --- | --- | --- | --- | --- | --- | --- |
| Cc1ccccc1NC(=O)CNC12CC3CC(CC(O)(C3)C1)C2 [Compound 2] | 10.1 | 10.1 | 86.82 |  |  | 0.42 | 1.2 | IC50 [2, 6]: 10.3 nM |
| Cc1ccc(NC(=O)CNC23CC4CC(CC(O)(C4)C2)C3)cc1 [Compound 3] |  |  | 28.38 | much weaker enzyme inhibition activities |  |  |  |  |
| COc1ccccc1NC(=O)CNC12CC3CC(CC(O)(C3)C1)C2 [Compound 5] | 94.1 | 94.1 |  | weakened the enzyme inhibition activities | 93.48* % | 0.66 | 0.26 |  |
| O=C(CNC12CC3CC(CC(O)(C3)C1)C2)Nc1ccccc1C(F)(F)F [Compound 14] | 41.3 | 41.3 | 84.81 | generally weak |  | 0.12 | Increased B.G. |  |
| O=C(CNC12CC3CC(CC(O)(C3)C1)C2)Nc1cccc(C(F)(F)F)c1 [Compound 15] | 116 | > 100 |  | did not show good activity; also recorded: generally weak | 97.81* % | 1.18 | 0.72 | Fasting blood glucose level, Day 1 [4]: 167.20 ± mg/dL; Fasting blood glucose level, Day 2 [4]: 87.80 ± mg/dL; Fasting blood glucose level, Day 3 [4]: 177.60 ± mg/dL; Fasting blood glucose level, Day 4 [4]: 166.80 ± mg/dL; Fasting blood glucose level, Day 5 [4]: 175.80 ± mg/dL; Fasting blood glucose level, Day 6 [4]: 161.80 mg/dL; AUC % change from diabetic control ([1]; single oral dose 50 mg/kg): −39.13%; AUC Δ from diabetic control ([1]; single oral dose 50 mg/kg): 19985 mg·min/dL; AUC of blood glucose in OGTT (X, mean) ([1]; single oral dose 50 mg/kg): 31080* mg · dL^−1 · min; AUC % change from diabetic control [3]: −26.07%; AUC Δ from diabetic control [3]: 13729 mg·min/dL; Relative potency to vildagliptin [3]: 0.72; AUC of blood glucose in OGTT (X, mean) [3]: 38926* mg · dL^−1 · min |
| COC(=O)c1ccccc1NC(=O)CNC12CC3CC(CC(O)(C3)C1)C2 [Compound 16] |  |  | 45.61 | weakened the enzyme inhibition activities |  |  |  | Fasting blood glucose level, Day 1 [4]: 174.00 mg/dL; Fasting blood glucose level, Day 2 [4]: 93.80 ± mg/dL; Fasting blood glucose level, Day 3 [4]: 158.40 ± mg/dL; Fasting blood glucose level, Day 4 [4]: 127.40 ± mg/dL; Fasting blood glucose level, Day 5 [4]: 171.00 ± mg/dL; Fasting blood glucose level, Day 6 [4]: 107.60 ± mg/dL; AUC % change from diabetic control ([1]; single oral dose 50 mg/kg): −39.51%; AUC Δ from diabetic control ([1]; single oral dose 50 mg/kg): 20179 mg·min/dL; Relative potency to vildagliptin ([1]; single oral dose 50 mg/kg, OGTT AUC): 1.19; AUC of blood glucose in OGTT (X, mean) ([1]; single oral dose 50 mg/kg): 30886* mg · dL^−1 · min; AUC % change from diabetic control [3]: −52.53%; AUC Δ from diabetic control [3]: 28183 mg·min/dL; Relative potency to vildagliptin [3]: 1.45; AUC of blood glucose in OGTT (X, mean) [3]: 24472* mg · dL^−1 · min |
| O=C(CNC12CC3CC(CC(O)(C3)C1)C2)Nc1cccc(O)c1 [Compound 17] | 212 | > 100 | 44.44 | very weak activity |  | 0.26 | 1.42 |  |
| N#Cc1ccccc1NC(=O)CNC12CC3CC(CC(O)(C3)C1)C2 [Compound 19] | 267 | > 100 |  | exception to nitrile performance | 99.06* % | 0.23 | 0.87 |  |
| N#Cc1cccc(NC(=O)CNC23CC4CC(CC(O)(C4)C2)C3)c1 [Compound 26, N-(3-cyanophenyl)-2-[(3-hydroxyadamantan-1-yl)amino]acetamide] | 0.58 | 0.58 |  | high affinity towards the enzyme |  | 0.32 | 1.3 | DPP-4 enzyme inhibition activity, in words ([2]; listed as GLP-26): high level of potency both in vitro and in vivo; inhibition at 0.1 µM [2]: 83.1%; IC50 [2, 6]: < 1 nM |
| O=C(CNC12CC3CC(CC(O)(C3)C1)C2)Nc1ccccc1F [Compound 27] |  |  |  | generally weak | 67.04* % |  |  |  |
| Cc1cccc(NC(=O)CNC23CC4CC(CC(O)(C4)C2)C3)c1 [Compound 30] |  |  |  | much weaker enzyme inhibition activities | 70.92* % |  |  |  |
| O=C(CNC12CC3CC(CC(O)(C3)C1)C2)Nc1cccc(F)c1 [Compound 31] | 62.3 | 62.3 | 56.23 | generally weak |  | 0.37 | 0.85 |  |
| O=C(CNC12CC3CC(CC(O)(C3)C1)C2)Nc1ccc(Cl)cc1 [Compound 43] | 102 | > 100 | 51.64 | weak inhibitors at high concentration |  | 0.26 | 1.39 |  |
| O=C(CNC12CC3CC(CC(C3)C1)C2)Nc1cc(Cl)ccn1 [Compound 117] | 5.42 |  | 83.14 | high DPP-4 inhibition; also recorded: best functionality in enzyme inhibition activity |  |  |  |  |
| N#C[C@@H]1CCCN1C(=O)CNC12CC3CC(CC(O)(C3)C1)C2 [Vildagliptin, reference compound] |  |  |  |  |  |  | 1 | Fasting blood glucose level, Day 1 [4]: 205.20 ± mg/dL; Fasting blood glucose level, Day 2 [4]: 119.40 ± mg/dL; Fasting blood glucose level, Day 3 [4]: 169.20 ± mg/dL; Fasting blood glucose level, Day 4 [4]: 197.80 mg/dL; Fasting blood glucose level, Day 5 [4]: 244.60 mg/dL; Fasting blood glucose level, Day 6 [4]: 165.00 mg/dL |

More lines, main results first:

| IC50 [2, 5] [nM] | IC50 ([2]; Table 6, read-out: IC50) [nM] | % Inhibition @ 100 nM [2] [%] | DPP-4 enzyme inhibition activity, in words [2] | % Inhibition (values marked *: inhibition at 1000 nM) [2] | SMILES | R.P. to Vildagliptin (Single Dose) [1] | R.P. to Vildagliptin (6 Days) [3] | other results |
| --- | --- | --- | --- | --- | --- | --- | --- | --- |
| 7.41 |  |  |  |  | O=C(CNC12CC3CC(CC(O)(C3)C1)C2)NCc1ccccc1 [Compound 53] |  |  | inhibition at 0.1 µM [2]: 86.8% |
| 87.1 | 87.1 | 57.12 |  |  | O=C(CNC12CC3CC(CC(O)(C3)C1)C2)NCc1ccc(F)cc1 [Compound 54] | Increased B.G. | Increased B.G. |  |
|  |  |  |  | 67.04* % | O=C(CNC12CC3CC(CC(O)(C3)C1)C2)NCCc1ccccc1 [Compound 59] | 0.52 | 0.83 |  |
|  |  |  | very weak activity | 20.11* % | O=C(CNC12CC3CC(CC(O)(C3)C1)C2)Nc1ccc(O)cc1 [Compound 60] | 0.67 | 0.67 |  |
|  |  |  | much weaker enzyme inhibition activities | 62.84* % | Cc1cccc(C)c1NC(=O)CNC12CC3CC(CC(C3)C1)C2 [Compound 120] |  |  |  |
